# PMC2766259 (Synapse (New York, N.Y.), 2009)
# Like-named read-outs stand apart in the source and are kept apart here.
# Key:
# [1] = system: α4β2* nAChRs; conditions: acute treatment, baboon, ref Kassiou et al., 2001, cited from earlier work
# [2] = system: α4β2* nAChRs; conditions: in rats; ref Saji et al., 2002; cited from earlier work
# [3] = system: α4β2* nAChRs; conditions: human smokers, 2-[^18F]FA; ref Brody et al., 2006; cited from earlier work
# [4] = system: α4β2* nAChRs; conditions: pigs, CI; ref Brust et al., 2008; cited from earlier work
# [5] = system: α4β2* nAChRs; conditions: cited from earlier work
# [6] = system: α4β2* nAChRs; conditions: cited from earlier work; remark: listed apart in the source
# [7] = 5-[^123I]IA SPECT of the living human brain, VOI kinetic analysis; assay type: in vivo, Humans (Homo sapiens); conditions: human, intravenous
# [8] = target: high-affinity α4β2* neuronal nicotinic acetylcholine receptors (nAChRs) (Homo sapiens, UniProt P17787+P43681); test: as above; assay type: in vivo, Humans (Homo sapiens)
# Sequence of high-affinity α4β2* neuronal nicotinic acetylcholine receptors (nAChRs) (P43681 29-627 limits assumed): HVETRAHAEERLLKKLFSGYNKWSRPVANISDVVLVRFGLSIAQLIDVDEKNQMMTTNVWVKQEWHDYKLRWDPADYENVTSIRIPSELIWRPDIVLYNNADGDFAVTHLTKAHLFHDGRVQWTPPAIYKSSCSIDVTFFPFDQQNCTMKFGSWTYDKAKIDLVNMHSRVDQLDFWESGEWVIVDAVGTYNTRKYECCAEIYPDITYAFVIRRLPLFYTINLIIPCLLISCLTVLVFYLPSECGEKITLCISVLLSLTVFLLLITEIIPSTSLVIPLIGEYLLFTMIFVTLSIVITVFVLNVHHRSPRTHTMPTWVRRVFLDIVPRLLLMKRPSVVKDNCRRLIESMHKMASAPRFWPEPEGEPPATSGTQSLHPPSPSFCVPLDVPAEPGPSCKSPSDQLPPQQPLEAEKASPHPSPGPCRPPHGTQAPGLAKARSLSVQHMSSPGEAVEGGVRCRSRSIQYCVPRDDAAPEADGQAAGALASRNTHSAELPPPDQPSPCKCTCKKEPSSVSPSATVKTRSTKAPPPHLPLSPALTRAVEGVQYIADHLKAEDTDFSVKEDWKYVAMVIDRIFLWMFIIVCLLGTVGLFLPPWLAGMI
# Sequence of high-affinity α4β2* neuronal nicotinic acetylcholine receptors (nAChRs) (P17787 26-502): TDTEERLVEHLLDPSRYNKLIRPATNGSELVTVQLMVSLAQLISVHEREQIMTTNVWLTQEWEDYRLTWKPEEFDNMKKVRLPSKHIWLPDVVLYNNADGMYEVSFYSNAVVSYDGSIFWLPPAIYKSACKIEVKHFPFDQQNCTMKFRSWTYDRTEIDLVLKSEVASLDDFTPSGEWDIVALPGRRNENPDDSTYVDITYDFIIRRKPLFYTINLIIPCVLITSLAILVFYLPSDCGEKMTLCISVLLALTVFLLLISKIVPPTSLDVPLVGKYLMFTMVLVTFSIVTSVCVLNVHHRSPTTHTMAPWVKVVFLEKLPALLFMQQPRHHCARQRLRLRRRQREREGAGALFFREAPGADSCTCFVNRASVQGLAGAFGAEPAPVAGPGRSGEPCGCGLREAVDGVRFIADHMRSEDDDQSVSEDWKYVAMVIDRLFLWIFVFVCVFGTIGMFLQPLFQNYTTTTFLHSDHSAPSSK
# [9] = Plasma metabolite analysis by column-switch HPLC after intravenous 5-[^123I]IA; assay type: in vivo, Humans (Homo sapiens); conditions: drawn simultaneously 30 minutes or later after administration
# [10] = system: α4β2* nAChRs; conditions: in rats; ref Saji et al., 2002; cited from earlier work; remark: listed apart in the source
# [11] = system: α4β2* nAChRs; conditions: ref Saji et al., 2002; cited from earlier work
# [12] = system: α4β2* nAChRs; conditions: cited from earlier work; remark: listed apart in the source
# [13] = Safety and tolerability monitoring after intravenous 5-[^123I]IA; assay type: in vivo, Humans (Homo sapiens)
structure (smiles),measurement,setting,value
CN1CCC[C@H]1c1cccnc1 [(−)-nicotine],reduction in α4β2* nAChR uptake,[1]; frontal cortex,32%
same,reduction in α4β2* nAChR uptake,[1]; thalamus,52%
same,effect on accumulation of 5-[^123I]IA in brain,[2],blocked in all brain regions
same,plasma nicotine level at uptake of half the α4β2* nAChRs,[3],0.87 ng/mL
"[18F]c1ccc([C@@H]2C[C@H]3CCC[C@@H]2N3)cn1 [(−)-[^18F]NCFHEB, [^18F]norchloro-fluoro-homoepibatidine]",Conclusion: attainment of equilibrium,[4],• (−)-[^18F]NCFHEB attains equilibrium before 2-[^18F]FA
"[18F]c1cc(-c2cc(OC[C@@H]3CCN3)cnc2Cl)ccn1 [[^18F]NIDA522131, chloro-3-((2-(S)-azetidinyl)methoxy)-5-(2-[^18F]fluoropyridin-4-yl)pyridine]",Conclusion: safety and efficacy,"[5]; ref Chefer et al., 2008",• [^18 F]NIDA522131 is safe and efficacious for brain imaging in monkeys.
"[18F]c1ccc(OC[C@@H]2CCN2)cn1 [6-[^18F]FA, 6-[^18F]fluoro-3-(2(S)-azetidinylmethoxy)pyridine]",Conclusion: safety and efficacy,"[5]; ref Horti et al., 2000",• 6-[^18F]FA is safe and efficacious for brain imaging in monkeys.
"[18F]c1ncccc1OC[C@@H]1CCN1 [2-[^18F]FA, 2-[^18F]fluoro-3-(2(S)-azetidinylmethoxy)pyridine, reference compound]",Conclusion: peaks,[6]; in vivo,• In baboons 2-[^18F]FA has lower peaks than [^18F]fluoronorchloroepibatidine. In a monkey 2-[^18F]FA has lower peaks than 5-[^123I]IA.
same,Conclusion: safety and efficacy,"[5]; 2 monkeys, ref Kimes et al., 2003",• 2-[^18F]FA is safe and efficacious in monkeys and humans.
same,Conclusion: peaks,"[5]; a monkey, ref Dollé et al., 1999",• In baboons 2-[^18F]FA has lower peaks than [^18F]fluoronorchloroepibatidine. In a monkey 2-[^18F]FA has lower peaks than 5-[^123I]IA.
same,Conclusion: safety and efficacy,"[5]; ref Chefer et al., 1999",• 2-[^18F]FA is safe and efficacious for brain imaging in monkeys.
"[76Br]c1ccc(C2CC3CCC2N3)cn1 (stereo not drawn) [[^76Br]BrPH, [^76Br]norchlorobromoepibatidine, reference compound]",Conclusion: safety and efficacy,"[6]; ref Kassiou et al., 2002",[^76Br]BrPH is safe and efficacious in baboons.
"[123I]c1cncc(OC[C@@H]2CCN2)c1 [5-[^123I]IA, (S)-5-[^123I]iodo-3-(2-azetidinylmethoxy)pyridine]",Kp,"[7]; brain (cortex), 8.1 mCi, Distribution volume (DV), Cortex, subject 1, bolus",12.8
same,Kp,"[7]; brain (cortex), 8.8 mCi, Distribution volume (DV), Cortex, subject 4, bolus",7.62
same,Kp,"[7]; brain (cortex), 9.3 mCi, Distribution volume (DV), Cortex, subject 3, bolus",13
same,Kp,"[7]; brain (frontal lobe), 8.1 mCi, Distribution volume (DV), Frontal lobe, subject 1, bolus",9.6
same,Kp,"[7]; brain (frontal lobe), 8.8 mCi, Distribution volume (DV), Frontal lobe, subject 4, bolus",5.46
same,Kp,"[7]; brain (frontal lobe), 9.3 mCi, Distribution volume (DV), Frontal lobe, subject 3, bolus",8.56
same,Kp,"[7]; brain (fusiform gyrus), 8.1 mCi, Distribution volume (DV), Fusiform gyrus, subject 1, bolus",9.34
same,Kp,"[7]; brain (fusiform gyrus), 8.8 mCi, Distribution volume (DV), Fusiform gyrus, subject 4, bolus",5.68
same,Kp,"[7]; brain (fusiform gyrus), 9.3 mCi, Distribution volume (DV), Fusiform gyrus, subject 3, bolus",9.58
same,Kp,"[7]; brain (hippocampus), 8.1 mCi, Distribution volume (DV), Hippocampus, subject 1, bolus",13.5
same,Kp,"[7]; caudate head, Median DV of high plasma nicotine group, Caudate head, six volunteers",13.7
same,Kp,"[7]; caudate head, Median DV of low plasma nicotine group, Caudate head, six volunteers",21.9
same,Kp,"[7]; cerebellum, 8.1 mCi, Distribution volume (DV), subject 1, bolus",8.71
same,Kp,"[7]; cerebellum, 8.8 mCi, Distribution volume (DV), subject 4, bolus",5.4
same,Kp,"[7]; cerebellum, 9.3 mCi, Distribution volume (DV), subject 3, bolus",9.88
same,Kp,"[7]; cingulate cortex, Median DV of high plasma nicotine group, Cingulate cortex, six volunteers",12.6
same,Kp,"[7]; cingulate cortex, Median DV of low plasma nicotine group, Cingulate cortex, six volunteers",21.4
same,Kp,"[7]; cingulate gyrus, 8.1 mCi, Distribution volume (DV), subject 1, bolus",12.6
same,Kp,"[7]; cingulate gyrus, 8.8 mCi, Distribution volume (DV), subject 4, bolus",7.55
same,Kp,"[7]; cingulate gyrus, 9.3 mCi, Distribution volume (DV), subject 3, bolus",12.4
same,Kp,"[7]; frontal cortex, Median DV of high plasma nicotine group, Frontal cortex, six volunteers",9.6
same,Kp,"[7]; frontal cortex, Median DV of low plasma nicotine group, Frontal cortex, six volunteers",18
same,Kp,"[7]; fusiform gyrus, Median DV of high plasma nicotine group, Fusiform gyrus, six volunteers",9.46
same,Kp,"[7]; fusiform gyrus, Median DV of low plasma nicotine group, Fusiform gyrus, six volunteers",19.9
same,Kp,"[7]; head of the caudate nucleus, 8.1 mCi, Distribution volume (DV), Caudate head, subject 1, bolus",13.7
same,Kp,"[7]; head of the caudate nucleus, 8.8 mCi, Distribution volume (DV), Caudate head, subject 4, bolus",7.75
same,Kp,"[7]; head of the caudate nucleus, 9.3 mCi, Distribution volume (DV), Caudate head, subject 3, bolus",13.1
same,Kp,"[7]; hippocampus, 8.8 mCi, Distribution volume (DV), subject 4, bolus",8.32
same,Kp,"[7]; hippocampus, 9.3 mCi, Distribution volume (DV), subject 3, bolus",14.4
same,Kp,"[7]; occipital cortex, Median DV of high plasma nicotine group, Occiptal cortex, six volunteers",7.15
same,Kp,"[7]; occipital cortex, Median DV of low plasma nicotine group, Occiptal cortex, six volunteers",14.2
same,Kp,"[7]; occipital lobe, 8.1 mCi, Distribution volume (DV), Occiptal lobe, subject 1, bolus",7
same,Kp,"[7]; occipital lobe, 8.8 mCi, Distribution volume (DV), Occiptal lobe, subject 4, bolus",4.17
same,Kp,"[7]; occipital lobe, 9.3 mCi, Distribution volume (DV), Occiptal lobe, subject 3, bolus",7.15
same,Kp,"[7]; parietal cortex, Median DV of high plasma nicotine group, Parietal cortex, six volunteers",9.78
same,Kp,"[7]; parietal cortex, Median DV of low plasma nicotine group, Parietal cortex, six volunteers",17
same,Kp,"[7]; parietal lobe, 8.1 mCi, Distribution volume (DV), subject 1, bolus",9.78
same,Kp,"[7]; parietal lobe, 8.8 mCi, Distribution volume (DV), subject 4, bolus",5.17
same,Kp,"[7]; parietal lobe, 9.3 mCi, Distribution volume (DV), subject 3, bolus",8.71
same,Kp,"[7]; pons, 8.1 mCi, Distribution volume (DV), subject 1, bolus",15.1
same,Kp,"[7]; pons, 8.8 mCi, Distribution volume (DV), subject 4, bolus",9.23
same,Kp,"[7]; pons, 9.3 mCi, Distribution volume (DV), subject 3, bolus",20.4
same,Kp,"[7]; putamen, 8.8 mCi, Distribution volume (DV), subject 4, bolus",8.74
same,Kp,"[7]; putamen, 9.3 mCi, Distribution volume (DV), subject 3, bolus",15.6
same,Kp,"[7]; temporal cortex, Median DV of high plasma nicotine group, Temporal cortex, six volunteers",8.39
same,Kp,"[7]; temporal cortex, Median DV of low plasma nicotine group, Temporal cortex, six volunteers",15
same,time of maximal cerebellar uptake,[8]; after injection,40 min
same,time of peak thalamic uptake,[8]; after injection,approximately 140 minutes
same,brain uptake,[8]; living human brain,good brain uptake
same,reversibility of binding,[8]; time activity curves,reversible binding with substantial dissociation by 6 h
same,"extent of metabolism, arterial versus venous blood samples",[9],identical extents of metabolism
same,binding affinity relative to (−)-nicotine,[10],seven times greater
same,binding affinity relative to A-85380,[10],comparable to A-85380
same,Conclusion: safety and efficacy,[11],"• 5-[^123I]IA is safe, efficacious in a marmoset."
same,Conclusion: regional uptake,"[6]; baboon, ref Baldwin et al., 2006","• Uptake high in thalamus, moderate in cortex and basal ganglia, low in cerebellum. SPECT brain radioactivity represents5-[^123I]IA distribution"
same,Conclusion: safety and efficacy,"[6]; ref Fujita et al., 2000","5-[^123I]IA is safe, efficacious in baboons."
same,regional brain uptake,[2],"high uptake in the thalamus, moderate uptake in the cortex, and low uptake in the cerebellum"
same,Conclusion: safety and efficacy,"[5]; ref Chefer et al., 1998",5-[^123 I]IA is safe and efficacious for brain imaging in monkeys.
same,Conclusion: metabolism and plasma protein binding by sex,"[12]; 29 nonsmokers, ref Cosgrove et al., 2007",greater in women than in men
same,Conclusion: safety and efficacy,"[12]; ref Fujita et al., 2002","• 5-[^123I]IA is safe, efficacious in humans."
same,Conclusion: safety and efficacy,"[12]; ref Ishizu et al., 2004","• 5-[^123I]IA is safe, efficacious in humans."
same,Conclusion: safety and efficacy,"[12]; ref Mamede et al., 2004","• 5-[^123I]IA is safe, efficacious in humans."
same,Conclusion: safety and efficacy,"[12]; ref Staley et al., 2005","• 5-[^123I]IA is safe, efficacious in humans."
same,Conclusion: safety and efficacy,"[12]; ref Ueda et al., 2004","• 5-[^123I]IA is safe, efficacious in humans."
same,vital signs and electrocardiograms,[13]; before administration and subsequent 24 hours,normal
same,"abnormalities of behavior or movement (AIMS, BPRS)",[13]; before or after administration,no abnormalities of behavior or movement
same,"Electrocardiogram, blood pressure, and pulse","[13]; during each study, twelve healthy adults",did not change
same,Conclusion: safety and efficacy,"[13]; humans, smokers, nonsmokers, secondhand smoke exposure, current study","• 5-[^123I]IA is safe, efficacious in humans (smokers, nonsmokers, people with secondhand smoke exposure"
"[11CH3]N1CCC[C@H]1c1cccnc1 [[^11C](S)-(−)-nicotine, reference compound]",non-specific binding,"[12]; human nAChR imaging, ref Scheffel et al., 2000, Villemagne et al., 1998",high degree of non-specific binding
